The source of these data is ChEMBL document CHEMBL3286269, “Group A streptococcus inhibitors by high-throughput virtual screening” (2014).

The structures appear in SMILES notation. In brackets after ≈: the same amount, converted by molar mass.

The test system of this experiment is Streptococcus sp. 'group A'. As to the kind of experiment: Antibacterial activity against group A streptococcus MGAS2221 after 12 hrs by microscopic count analysis. In kind it is functional. The note with it: MGAS2221, 12 h.
The term MIC denotes the least concentration at which growth counts as inhibited. Take `Cc1ccc([N+](=O)[O-])c(NC(=O)NC(=O)c2c(Cl)cccc2Cl)c1C`: the minimum inhibitory concentration (MIC) turned out to be 50 µM (≈ 19.1 µg/mL). The result for `O=Cc1cc(Cl)cc(Cl)c1O` reads 20 µM (≈ 3.82 µg/mL); that for `Oc1c(Cl)cc(Cl)cc1/C=N/CC1CCC(C/N=C/c2cc(Cl)cc(Cl)c2O)CC1` (configuration not stated), 10 µM (≈ 4.88 µg/mL). `O=C1NN=CC1CCC/N=C/c1cc(Cl)cc(Cl)c1O` (configuration not stated): the MIC was 10 µM (≈ 3.14 µg/mL). The value for `Oc1c(Cl)cc(Cl)cc1/C=N/CC1CCCO1` (configuration not stated) was 20 µM (≈ 5.48 µg/mL); that for `OCC/N=C/c1cc(Cl)cc(Cl)c1O` was 20 µM (≈ 4.68 µg/mL). Turning to `O=C1NN=CC1CCC/N=C/c1cc(Br)ccc1O` (configuration not stated), the MIC is 40 µM (≈ 13 µg/mL).
